Legend:
FjDusD = biological target: T1, FjDusD (Flavobacterium johnsoniae, UniProt A5FBI4); test: isothermal titration calorimetry; assay type: binding; conditions: 10 mM HEPES-NaOH pH 7.0, 25 °C; one-site model (n = 1)
T1 construct: gene Fjoh_4433; signal peptide evaluated by SignalP
T1 sequence (A5FBI4 22-494): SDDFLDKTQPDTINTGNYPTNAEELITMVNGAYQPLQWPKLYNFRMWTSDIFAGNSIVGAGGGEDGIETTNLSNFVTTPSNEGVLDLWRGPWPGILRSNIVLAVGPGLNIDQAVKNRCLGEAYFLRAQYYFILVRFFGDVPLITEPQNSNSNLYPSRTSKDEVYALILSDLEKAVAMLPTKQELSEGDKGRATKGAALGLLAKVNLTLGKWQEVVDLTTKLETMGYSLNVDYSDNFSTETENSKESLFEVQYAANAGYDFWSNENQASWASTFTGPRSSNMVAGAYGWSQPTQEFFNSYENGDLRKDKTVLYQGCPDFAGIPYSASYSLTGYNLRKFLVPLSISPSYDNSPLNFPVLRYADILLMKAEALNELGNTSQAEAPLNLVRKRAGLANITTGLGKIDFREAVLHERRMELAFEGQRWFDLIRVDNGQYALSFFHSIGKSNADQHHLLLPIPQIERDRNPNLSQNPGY
Description: isothermal titration calorimetry on FjDusD

FjGH66 = biological target: T2, FjGH66 (Flavobacterium johnsoniae, UniProt A5FBI2); test: X-ray crystal structure, […] Å; assay type: binding
T2 construct: gene Fjoh_4431; domains 41-126, 127-464, 485-586
T2 sequence (A5FBI2 34-586): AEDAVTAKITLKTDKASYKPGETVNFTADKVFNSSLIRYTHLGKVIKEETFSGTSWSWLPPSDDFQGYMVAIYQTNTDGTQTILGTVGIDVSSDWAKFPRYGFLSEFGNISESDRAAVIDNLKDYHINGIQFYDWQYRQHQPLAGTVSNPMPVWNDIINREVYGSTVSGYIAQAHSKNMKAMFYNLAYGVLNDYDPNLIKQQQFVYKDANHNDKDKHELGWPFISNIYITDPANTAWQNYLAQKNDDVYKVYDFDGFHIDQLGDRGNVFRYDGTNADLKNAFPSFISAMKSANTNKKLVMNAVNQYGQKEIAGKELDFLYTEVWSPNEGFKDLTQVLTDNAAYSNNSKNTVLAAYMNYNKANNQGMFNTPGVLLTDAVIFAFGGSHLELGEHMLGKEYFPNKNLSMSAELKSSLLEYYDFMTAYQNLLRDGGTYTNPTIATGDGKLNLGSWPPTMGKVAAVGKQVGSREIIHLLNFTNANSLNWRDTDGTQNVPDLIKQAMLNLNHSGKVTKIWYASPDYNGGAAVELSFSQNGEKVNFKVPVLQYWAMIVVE

Kd (FjDusD) [µM] | Compound | further results
467 ± 156 | OC[C@H]1O[C@H](OC[C@H]2O[C@H](OC[C@H]3O[C@H](OC[C@H]4O[C@H](OC[C@H]5O[C@H](OC[C@H]6OC(O)[C@H](O)[C@@H](O)[C@@H]6O)[C@H](O)[C@@H](O)[C@@H]5O)[C@H](O)[C@@H](O)[C@@H]4O)[C@H](O)[C@@H](O)[C@@H]3O)[C@H](O)[C@@H](O)[C@@H]2O)[C@H](O)[C@@H](O)[C@@H]1O (stereo partly drawn) [Isomaltohexaose] | –
226 ± 29 | OC[C@H]1O[C@H](OC[C@H]2O[C@H](OC[C@H]3O[C@H](OC[C@H]4O[C@H](OC[C@H]5OC(O)[C@H](O)[C@@H](O)[C@@H]5O)[C@H](O)[C@@H](O)[C@@H]4O)[C@H](O)[C@@H](O)[C@@H]3O)[C@H](O)[C@@H](O)[C@@H]2O)[C@H](O)[C@@H](O)[C@@H]1O (stereo partly drawn) [Isomaltopentaose] | –
– | OC[C@H]1O[C@H](OC[C@H]2OC(O)[C@H](O)[C@@H](O)[C@@H]2O)[C@H](O)[C@@H](O)[C@@H]1O (stereo partly drawn) [Isomaltose] | X-ray crystal structure, 1.80 Å (FjGH66; crystal soaked with 10 mM IG2): complexes with glucose, IG2, or IG3 were determined
326 ± 14 | OC[C@H]1O[C@H](OC[C@H]2O[C@H](OC[C@H]3O[C@H](OC[C@H]4OC(O)[C@H](O)[C@@H](O)[C@@H]4O)[C@H](O)[C@@H](O)[C@@H]3O)[C@H](O)[C@@H](O)[C@@H]2O)[C@H](O)[C@@H](O)[C@@H]1O (stereo partly drawn) [Isomaltotetraose] | –
621 ± 23 | OC[C@H]1O[C@H](OC[C@H]2O[C@H](OC[C@H]3OC(O)[C@H](O)[C@@H](O)[C@@H]3O)[C@H](O)[C@@H](O)[C@@H]2O)[C@H](O)[C@@H](O)[C@@H]1O (stereo partly drawn) [Isomaltotriose] | –
– | OC[C@H]1OC(O)[C@H](O)[C@@H](O)[C@@H]1O (stereo partly drawn) [glucose] | X-ray crystal structure, 1.80 Å (FjGH66; crystal soaked with 10 mM glucose): complexes with glucose, IG2, or IG3 were determined

From article PMC10316084, “Bacteroidota polysaccharide utilization system for branched dextran exopolysaccharides from lactic acid bacteria” (The Journal of Biological Chemistry, 2023)
